Where two headings read alike, the source gives them in different places. *1 amine or outer side, *2 acyl side, *3 side chain or, on linkers, in order; H or OH if unused. Where a SMILES comes first, the peptide text is derived from it. [ ]: non-standard residue; d: D form. The star is where a group is joined. X1 = O=C([C@@H](O)[C@H](Cc1ccccc1)N[*:1])[*:2]; PhAc = O=C(Cc1ccccc1)*
Columns and labels:
[1] = biological target: T1, chemically synthesized HIV protease (Human immunodeficiency virus type 1 group M subtype B, UniProt P12497, C555A/C583A); assay type: biochemical
T1 construct: The HIV protease was chemically synthesized; made in house; host or cells: chemical (peptide) synthesis, no expression host
Protocol: (§1) The HIV protease was chemically synthesized by replacement of two cysteine residues in the natural sequence [Science, 230, 949 (1985)] with alanine residues. The reaction mixture contained 100 mM MES buffer (pH 5.5), 40 mM of substrate (Ac-[…]NH, trifluoroacetate), inhibitors at varying concentrations dissolved in DMSO and 9.2 μg of the HIV protease in a total volume of 15 μl. Incubation was carried out at 37° C. for 60 min. The reaction was started by the addition of the enzyme and terminated by 15 μl of acetonitrile. The amount of a fragment peptide produced was measured by reversed-phase HPLC analysis using an internal standerd. The HPLC condition was as followes.
Solvent A: 0.1% trifluoroacetic acid aqueous solution
Gradient: B was increased in 1.0%/min from 100% of A,

[2] = biological target: recombinant HIV protease (Human immunodeficiency virus type 1 group M subtype B, UniProt P12497); conditions: inhibitor 5 μM (final concentration); 2.0 μg enzyme
Protocol: as §1

[3] = inhibitor 5 μM (final concentration)

Compound | Residual Activity (%) ([1]; inhibitor 50 nM) | Residual Activity (%) [1, 3] [%] | other results
1-Isoquinolinecarbonyl-Asn-(2S,3S)-AHPBA-Pro-NH-tBu [Example 140] | 72.8 | – | –
1-NaPhthoxyacetyl-Prg-(2S,3S)-AHPBA-Thz-NH-tBu [Example 180] | 26.0 | – | –
1-Naphtboxyacetyl-Msv-(2S,3S)-AHPBA-Thz-NH-tBu [Example 155] | 7.3 | – | –
1-Naphthoxyacetyl-Ile-(2S,3S)-AHPBA-Thz-NH-tBu [Example 161] | 7.0 | – | –
1-Naphthoxyacetyl-Msa-(2S,3S)-AHPBA-Dmp-NH-tBu [Example 183] | 4.3 | – | –
1-Naphthoxyacetyl-Msa-(2S,3S)-AHPBA-Thz-NH-chex-ol [Example 158] | – | < 10 | –
1-Naphthoxyacetyl-Msa-(2S,3S)-AHPBA-Thz-Pip-O--CH3 [Example 159] | 90.8 | – | –
1-Naphthoxyacetyl-Mta-(2S,3S)-AHPBA-Thz-NH-tBu [Example 162] | 2.9 | – | –
1-Naphthoxyacetyl-Mtv-(2S,3S)-AHPBA-Thz-NH-tBu [Example 154] | 35.4 | – | –
1-Napthoxyacetyl-Sma-(2S,3S)-AHPBA-Pro-NH-tBu [Example 98] | 70.5 | – | –
2-Naphthoxyacetyl-Msa-(2S,3S)-AHPBA-Pro-NH-tBu [Example 131] | 28.8 | – | –
2-Quinolinecarbonyl-Asn-(2S,3S)-AHPBA-Dtc-NH-tBu [Example 118] | 1.8 | – | –
3-Phenylpropionyl-Msa-(2S,3S)-AHPBA-Pro-Ile-Val-NH2 [Example 62] | – | 3.2 | –
3-Phenylpropionyl-Smc(O)-(2S,3S)-AHPBA-Pro-Ile-Val-NH2 [Example 61] | – | 90.9 | –
5Isoquinoline-O--CH2 CO-Asn-(2S,3S)-AHPBA-Thz-NH-tBu [Example 192] | – | – | inhibitory activity against the HIV protease ([1]; expected, compound only said to be preparable): high inhibitory activity
CC[C@H](C)[C@H](NC(=O)[C@@H]1CCCN1C(=O)[C@@H](O)[C@H](Cc1ccccc1)NC(=O)[C@H](CO)NC(=O)Cc1ccccc1)C(=O)N[C@H](C(N)=O)C(C)C [Example 20, Phenylacetyl-Ser-(2S,3S)-AHPBA-Pro-Ile-Val-NH2] (PhAc-S[X1]PIV-NH2) | – | 42.8 | Residual Activity (%) ([1]; inhibitor 1 mM): 2.8%
CC(C)(C)NC(=O)[C@@H]1CCCN1C(=O)[C@@H](O)[C@H](Cc1ccccc1)NC(=O)[C@H](CC(N)=O)NC(=O)OCc1ccccc1 [Example 55, Benzyloxycarbonyl-Asn-(2S,3S)-AHPBA-Pro-NH-tBu] | – | 3.5 | –
CC(C)(C)NC(=O)[C@@H]1CCCN1C(=O)[C@H](O)[C@H](Cc1ccccc1)NC(=O)[C@H](CC(N)=O)NC(=O)OCc1ccccc1 [Example 56, Benzyloxycarbonyl-Asn-(2R,3S)-AHPBA-Pro-NH-tBu] | – | 95.1 | –
NC(=O)C[C@H](NC(=O)OCc1ccccc1)C(=O)N[C@@H](Cc1ccccc1)[C@H](O)C(=O)N1CCC[C@H]1C(=O)NC1CCCCC1 [Example 84, Benzyloxycarbonyl-Asn-(2S,3S)-AHPBA-Pro-NH--C6 H11] | – | 9.6 | –
CC(C)NC(=O)[C@@H]1CCCN1C(=O)[C@@H](O)[C@H](Cc1ccccc1)NC(=O)[C@H](CC(N)=O)NC(=O)OCc1ccccc1 [Example 85, Benzyloxycarbonyl-Asn-(2S,3S)-AHPBA-Pro-NH--CH(CH3)2] | – | 10.0 | –
CC(C)(C)NC(=O)[C@@H]1CCCN1C(=O)[C@@H](O)[C@H](Cc1ccccc1)NC(=O)[C@H](CS(C)(=O)=O)NC(=O)OCc1cccc2ccccc12 [Example 90, 1-Naphthylmethyloxycarbonyl-Msa-(2S,3S)-AHPBA-Pro-NH-tBu] | – | 1.5 | –
Benzyloxycarbonyl-Asn-(2S3S)-AHPBA-Pro-NHsBu [Example 176] | 82.6 | – | –

Compound | Residual Activity (%) ([1]; inhibitor 50 nM) | Residual Activity (%) [1, 3] [%] | other results
Benzyloxycarbonyl-Asn-(2S,3S)-AHPBA-(D)-Pip-NH-tBu [Example 79] | – | 84.0 | –
Benzyloxycarbonyl-Asn-(2S,3S)-AHPBA-Cpp-NH-tBu [Example 185] | 96.0 | – | –
Benzyloxycarbonyl-Asn-(2S,3S)-AHPBA-Dtc-NH-tBu [Example 104] | 3.8 | – | –
Benzyloxycarbonyl-Asn-(2S,3S)-AHPBA-Pro-Aib-NH2 [Example 93] | – | < 10 | –
Benzyloxycarbonyl-Asn-(2S,3S)-AHPBA-Pro-Ile-NH--CH2 --C6 H11 [Example 32] | – | 4.0 | residual enzymic activity [2]: 11.0%
Benzyloxycarbonyl-Asn-(2S,3S)-AHPBA-Pro-NH--C(CH3)2 --CH2 OH [Example 99] | 62.2 | – | –
Benzyloxycarbonyl-Asn-(2S,3S)-AHPBA-Pro-NH--CH2 --C(CH3)3 [Example 83] | – | 12.4 | –
Benzyloxycarbonyl-Asn-(2S,3S)-AHPBA-Pro-NH--CH(C2 H5)2 [Example 89] | – | < 10 | –
Benzyloxycarbonyl-Asn-(2S,3S)-AHPBA-Pro-NH-cycloropyl [Example 88] | – | < 10 | –
Benzyloxycarbonyl-Asn-(2S,3S)-AHPBA-Pro-NH-tAmyl [Example 87] | – | 5.8 | –
Benzyloxycarbonyl-Asn-(2S,3S)-AHPBA-Thz-NH-tBu [Example 82] | – | 1.3 | –
Benzyloxycarbonyl-Val-(2R,3S)-AHPBA-Phe-NH--CH2 --CH(CH3)2 [Example 54] | – | 84.9 | –
Benzyloxycarbonyl-Val-(2R,3S)-AHPBA-Phe-Val-NH--CH2 --CH(CH3)2 [Example 53] | – | 83.4 | –
Benzyloxycarbonyt-Asn-(2S,3S)-AHPBA-Ccp-NH-tBu [Example 187] | 99.0 | – | –
Bis(4-chlorophenyl)methyloxyacetyl-Asn-(2S,3S)-AHPBA-Pro-NH-tBu [Example 94] | 37.0 | – | –
Boc-Sma-(2S,3S)-AHPBA-Pro-NH-tBu [Example 97] | – | 92.9 | –
Furancarbonyl-Asn-(2S,3S)-AHPBA-Pro-Ile-Val-NH2 [Example 65] | – | 9.3 | –
PhCH2 -O--CO-Asn-(2S,3S)-AHPBA-(D)-Tic-NH-tBu [Example 103] | 91.4 | – | –
PhCH2 -O--CO-Asn-(2S,3S)-AHPBA-(L)-Tic-NH-tBu [Example 102] | 89.2 | – | –
PhCH2 -O--CO-Asn-(2S,3S)-AHPBA-Pro-NH--CH2 --C6 H11 [Example 49] | – | 51.9 | –
Thiophenecarbonyl-Asn-(2S,3S)-AHPBA-Pro-Ile-Val-NH2 [Example 67] | – | 4.9 | –

Source: patent US6313094A, “β-amino-α-hydroxycarboxylic acid derivatives and HIV protease inhibitors” (priority 1990, dated 2001)
